One test concerns fear-conditioned mice. Nature of the test: Cued-fear conditioning (freezing behavior, context recall). Type of test: in vivo. The protocol:
Cued-fear conditioning. Experiments were performed at the same time of the day during the light phase with 3-4 months-old male and female mice (n=14-19 mice/genotype, balanced sex). The training and test sessions were video recorded. Mice were placed in a shuttle box chamber (AccuScan Instruments) for 120 sec before exposing them to a neutral conditioned stimulus (CS+) -a tone of 80 dB for 30s, presented together with an aversive unconditioned stimulus (US) -an electrical footshock of 0.3 mA/2 sec, except in the case of the PTSD-eliciting protocol, where 2.5 mA shocks were used. Training consisted of 5 consecutive trials with 90 sec intertrials (CS-). Animals remained in the chamber for 5 min more before returning them to their home cages. Twenty-four hours later, fear conditioning was tested placing the animals in a different context using the same protocol but without the unconditioned stimulus (US). […] Freezing behavior was defined by the absence of movement except of breathing and heart beating. Context-dependent extinction was tested 1 and 5 weeks later (delayed extinction). Mice were placed in the same context for 5 min to measure their freezing behavior. The latter unveils PTSD-like behaviour when it is abnormally retained.
Drug administration. Human recombinant IGF-I (Pre-Protech, USA) or vehicle (saline) were administered intracerebroventricularly (icv, 50 µg/kg/day) using Alzet osmotic minipumps for 7 days (Model 1007D), and the brain infusion kit 3 (Alzet, USA) with the following stereotaxic coordinates: AP= -0.5; ML= 1.1; DV= -2.5. Alzet pumps were implanted subcutaneously between the scapulae. In other experiments IGF-I was given intraperitoneally (ip, 1 µg/kg) to wild type mice submitted to the 2.5 mA fear-learning protocol 6 hours after fear conditioning. For hdM4Di (DREADD) experiments, clozapine-N-oxide (CNO, Tocris) was administered at 2mg/kg dissolved in saline 0.9%, and injected intraperitoneally 40 min before test sessions, and 24h and 1week after fear conditioning. 6-[4-(2-Piperidin-1-yl-ethoxy)-phenyl)]-3-pyridin-4-yl-pyrrazolo [1,5-a]-pyrimidine dihydrochloride (Compound C dihydrochloride, AMPK inhibitor; Cat. # CD0339, Chemdea NJ, USA) was administered intraperitoneally (ip, 10 mg/kg) 6 hours after fear conditioning to PTSD-like wild type mice.

For test [1], the system named is orexin neurons. As to the kind of experiment: c-fos immunostaining in orexin neurons after fear conditioning. It counts as in vivo. Conditions: Firoc DREADD mice treated with CNO at week 1. The protocol: Immunocytochemistry. Mice were perfused transcardially under deep anesthesia (sodium pentobarbital, 50 mg/kg, i.p.) with 100 ml of saline buffer 0.9% followed by 100 ml of 4% paraformaldehyde (PFA) in 0.1N, pH 7.4 phosphate buffer (PB), 90 min after the cued-fear conditioning test, the recall context, or under basal conditions. This time point was selected as optimal to see c-Fos staining. For experiments with systemic administration of IGF-I, animals were sacrificed 2 hours after injection. Brains were removed, post-fixed overnight at 4°C in the same fixative, and cut at 50 µm thick sections on a vibratome (Leica VT 1000S). Sections were kept at 4°C, immersed in 0.1N PB with 0.02% sodium azide, until processing. Serial coronal free-floating sections were rinsed in 0.1N PB for 10 min, and a blocking solution containing 10% normal donkey serum, and 0.4% Triton X-100 in 0.1N PB (PB-T) was added and maintained at room temperature for 2 h. Thereafter, sections were incubated overnight at 4°C in the same solution with the corresponding primary antibodies (see Antibody Table). […] Images were taken with confocal microscopy (SP5, Leica Microsystems, Germany) and analyzed with Imaris software (Bitplane).
Image analysis. […] Last, spots were created for Vgat and Vglut2 with an estimated XY size of 0.5 µm, and the number of Vgat and Vglut2 spots in orexin+ cells was counted.

Test [2] relates to orexin neurons. As to the kind of experiment: Patch-clamp recordings in acute hypothalamic slices (DREADD check). It counts as cell-based. Particulars: hypothalamic slices of Orexin-Cre mice transduced with pAAV-hSyn-DIO-hM4D(Gi)-mCherry; CNO 2µM in perfusate. The protocol: Viral constructs. For chemogenetic experiments using DREADD, a viral construct (pAAV-hSyn-DIO-hM4D(Gi)-mCherry (AAV5; Addgene # 44362); 8.6 x 1012 viral infective units/ml) was locally injected bilaterally to inactivate orexin-cre neurons in Orexin-Cre (littermates) and transgenic mice (Firoc). As control virus, pAAV-hSyn-DIO-mCherry (AAV5; Addgene # 50459) was used. Both viral constructions were obtained from Addgene. Clozapine N-Oxide (CNO, 2mg/kg dissolved in saline 0.9%) was administered ip and 40 min later behavior was assessed, CNO efficacy in orexin neurons was confirmed in acute slices obtained from injected mice. Slices for electrophysiological recordings were prepared from 2-months old Orexin-Cre mice, 4 weeks after injection of the DREADD-mCherry virus into the lateral hypothalamus. […] Recordings were obtained at 30-32 °C from orexin+ neurons identified using fluorescence microscopy (mCherry+) in oxygenated artificial cerebrospinal fluid containing the following: 126 mM NaCl, 26 mM NaHCO3, 2.5 mM KCI, 1.25 mM NaH2PO4, 2 mM MgSO4, 2 mM CaCl2 and 10 mM glucose (pH 7.4). […] Data were analyzed using pClamp (Axon Instruments).
On the technique in general: Patch clamp records ionic current or voltage across a cell membrane.

The values that follow come from patent publication EP4085972A1, “AMP-ACTIVATED PROTEIN KINASE INHIBITORS FOR USE IN THE TREATMENT OF PTSD IN A SUBJECT” (Consejo Superior de Investigaciones Científicas (CSIC), priority 2021, dated 2022).

For the molecule `c1cc(-c2cnn3cc(-c4ccc(OCCN5CCCCC5)cc4)cnc23)ccn1` [Compound C], in the test with fear-conditioned mice (wild type mice, 2.5 mA shocks, Compound C ip, 10 mg/kg, 6 hours after fear conditioning), the “fear behavior after the PTSD protocol” value is “normalized fear behavior”.
Turning to `C[N+]1([O-])CCN(C2=Nc3cc(Cl)ccc3Nc3ccccc32)CC1` [CNO, clozapine-N-oxide], the “c-fos expression in orexin neurons 5 weeks after fear conditioning” value in the test with orexin neurons [1] is on record as “normal”. Also, the “inhibition of orexin neurons (action potential frequency, input resistance)” value with orexin neurons [2] is on record as “inhibition of orexin neurons was confirmed”. In addition, in the test on fear-conditioned mice (Firoc DREADD mice treated with CNO 1 week after fear learning), the “freezing behavior in the fifth week after fear learning” value is reported as “normal freezing behavior”. Moreover, in the test on fear-conditioned mice (Firoc mice injected with hM4Di virus, after CNO administration), the “context-dependent fear responses (context recall) 1 week later” value is “normalized fear responses”. The “fear responses after fear conditioning” value in the test on fear-conditioned mice (Firoc mice with hM4Di DREADD virus in lateral hypothalamus, CNO 2mg/kg ip 40 min before testing) was “normalized their fear responses”. Besides, in the test with fear-conditioned mice (orexin-Cre mice injected with hM4Di virus, CNO administration), the “increased freezing after 2.5 mA shock protocol” value is reported as “ameliorated”.
